Laboratory results: ChEMBL document CHEMBL1134198, “Structure-activity relationships of quinazoline derivatives: dual-acting compounds with inhibitory activities toward both TNF-alpha production and T cell proliferation” (Bioorg Med Chem Lett, 2001)

Tests used:
[1] = Inhibitory concentration against growth of LPS stimulated human peripheral blood mononuclear cells; type: functional
[2] = Inhibitory concentration against TNF-alpha production from human peripheral blood mononuclear cells stimulated by LPS; type: functional
T-cell = test: Inhibitory concentration against T cell proliferation using concanavalin A stimulated mice spleen cells; type: functional, cell-based; conditions: Mus musculus

Row | Compound | IC50 ([1]; Homo sapiens) [µM] | IC50 ([2]; Homo sapiens) [µM] | IC50 (T-cell) [µM] | IC50 [1] [µM] | IC50 [2] [µM]
1 | Oc1ccc2ncnc(NCCc3ccc(Cl)cc3)c2c1 | > 30 | > 30 | 1.4 | – | –
2 | O=[N+]([O-])c1ccc2ncnc(NCCc3ccc(Cl)cc3)c2c1 | > 30 | 14.6 | 3.2 | – | –
3 | Clc1ccc(CCNc2ncnc3ccc(Cl)cc23)cc1 | > 30 | > 30 | > 10 | – | –
4 | CS(=O)(=O)N1CCN(c2cc3ncnc(NCCc4ccc(Cl)cc4)c3cc2[N+](=O)[O-])CC1 | 4.5 | > 30 | 4.3 | – | –
5 | O=[N+]([O-])c1ccc2c(NCCc3ccc(Cl)cc3)ncnc2c1 | > 30 | > 30 | 5.6 | – | –
6 | Clc1ccc(CCNc2ncnc3ccc(OCc4ccccc4)cc23)cc1 | > 30 | > 30 | > 10 | – | –
7 | O=[N+]([O-])c1cc2c(NCCc3ccc(Cl)cc3)ncnc2cc1N1CCOCC1 | 22.5 | 24.8 | 8.3 | – | –
8 | Nc1ccc2ncnc(NCCc3ccc(Cl)cc3)c2c1 | > 30 | > 30 | 2.6 | – | –
9 | CNc1ccc2ncnc(NCCc3ccc(Cl)cc3)c2c1 | > 30 | > 30 | > 10 | – | –
10 | O=CNc1ccc2ncnc(NCCc3ccc(Cl)cc3)c2c1 | > 30 | > 30 | > 10 | – | –
11 | CN(C)c1cc2ncnc(NCCc3ccc(Cl)cc3)c2cc1[N+](=O)[O-] | 27.3 | 19.4 | 8.6 | – | –
12 | O=[N+]([O-])c1cc2c(NCCc3ccc(Cl)cc3)ncnc2cc1N1CCNCC1 | 12.1 | 0.8 | 1.1 | – | –
13 | COc1nc(NCCc2ccc(Cl)cc2)c2ccccc2n1 | > 30 | > 30 | > 10 | – | –
14 | Nc1ccc2c(NCCc3ccc(Cl)cc3)ncnc2c1 | > 30 | > 30 | 3.4 | – | –
15 | Clc1ccc(CCNc2ncnc3cc(Cl)ccc23)cc1 | > 30 | > 30 | > 10 | – | –
16 | Clc1ccc(CCNc2ncnc3ccc(NCc4ccccc4)cc23)cc1 | > 30 | > 30 | > 10 | – | –
17 | Clc1ccc(CCNc2ncnc3ccccc23)cc1 | > 30 | > 30 | 0.5 | – | –
18 | O=[N+]([O-])c1cc2c(NCCc3ccc(Cl)cc3)ncnc2cc1N1CCN(c2ccccc2)CC1 | > 30 | > 30 | > 10 | – | –
19 | O=[N+]([O-])c1cc2c(NCCc3ccc(Cl)cc3)ncnc2cc1N1CCN(c2ccccn2)CC1 | > 30 | > 30 | > 10 | – | –

Row | Compound | IC50 ([1]; Homo sapiens) [µM] | IC50 ([2]; Homo sapiens) [µM] | IC50 (T-cell) [µM] | IC50 [1] [µM] | IC50 [2] [µM]
20 | CCNc1cc2ncnc(NCCc3ccc(Cl)cc3)c2cc1[N+](=O)[O-] | > 30 | > 30 | > 10 | – | –
21 | Clc1ccc(CCNc2ncnc3ccc(Br)cc23)cc1 | > 30 | > 30 | 4.8 | – | –
22 | O=[N+]([O-])c1cc2c(NCCc3ccc(Cl)cc3)ncnc2cc1N1CCCNCC1 | 9.8 | 2.1 | 0.9 | – | –
23 | O=[N+]([O-])c1cc2c(NCCc3ccc(Cl)cc3)ncnc2cc1Cl | > 30 | > 30 | > 10 | – | –
24 | CCOc1cc2ncnc(NCCc3ccc(Cl)cc3)c2cc1[N+](=O)[O-] | > 30 | > 30 | – | – | –
25 | O=[N+]([O-])c1cc2c(NCCc3ccc(Cl)cc3)ncnc2cc1N1CCCCC1 | > 30 | > 30 | > 10 | – | –
26 | CN1CCN(c2cc3ncnc(NCCc4ccc(Cl)cc4)c3cc2[N+](=O)[O-])CC1 | 22.1 | 1.4 | 1.2 | – | –
27 | Fc1cc2ncnc(NCCc3ccc(Cl)cc3)c2cc1F | > 30 | > 30 | – | – | –
28 | COc1cc2ncnc(NCCc3ccc(Cl)cc3)c2cc1OC | > 30 | > 30 | 1.4 | – | –
29 | Cc1nc(NCCc2ccc(Cl)cc2)c2ccccc2n1 | > 30 | > 30 | 0.2 | – | –
30 | COc1cc2ncnc(NCCc3ccc(Cl)cc3)c2cc1[N+](=O)[O-] | > 30 | > 30 | – | – | –
31 | Clc1ccc(CCNc2nc(Cl)nc3ccccc23)cc1 | > 30 | > 30 | 1.2 | – | –
32 | Clc1ccc(CCNc2nc(-c3ccccc3)nc3ccccc23)cc1 | > 30 | > 30 | > 10 | – | –
33 | Cc1ccc2ncnc(NCCc3ccc(Cl)cc3)c2c1 | > 30 | > 30 | 0.8 | – | –
34 | C[C@@H]1C[C@H]2[C@@H]3CCC4=CC(=O)C=C[C@]4(C)[C@@]3(F)[C@@H](O)C[C@]2(C)[C@@]1(O)C(=O)CO [DEXAMETHASONE] | 0.04 | 0.01 | 0.005 | – | –
35 | CC(C)(S)[C@@H](N)C(=O)O [PENICILLAMINE] | > 30 | > 30 | – | – | –
36 | COc1ccc(C2CNC(=O)C2)cc1OC1CCCC1 (centres undefined) [ROLIPRAM] | > 30 | 0.5 | > 10 | – | –
37 | O=C(O)c1cc(/N=N/c2ccc(S(=O)(=O)Nc3ccccn3)cc2)ccc1O [SULFASALAZINE] | > 30 | > 30 | > 10 | – | –
38 | AURANOFIN | – | – | – | > 30 | > 30
